Patent publication US10272039B2 (The United States of America, as represented by the …, priority 2014, dated 2019)

Legend:
[1] = system: chronic leg ulcers in patients with sickle cell anaemia; conditions: concomitant use in 9 of 18 trial patients; p=0.96
Method: The primary endpoints were safety and tolerability, with secondary endpoints of pharmacokinetics, blood flow, and wound healing. Pain relief was analysed post hoc. Endpoints were analysed over time for the whole study population and according to dose level.
Hydroxycarbamide and chronic transfusions were allowed. Patients with acute infections were excluded.
Originally, it was planned to enroll four cohorts with three patients in each, to give a total of 12 participants. […] The first two doses of cream were administered as inpatients, and the remaining six doses in the outpatient day hospital at the NIH Clinical Center. […] All three patients in each cohort were assessed for the 32-day duration of the study to ensure no dose-limiting toxicities before patients were enrolled into the next cohort. […]
The study ulcer was selected by the wound care nurse and principal investigator on the basis of ulcer duration, size, and accessibility for digital imaging. […] Ulcers were measured manually with a disposable ruler (longest length and widest width) at each encounter and by digital photography three times: before the first application of cream (baseline), and after 2 weeks and after 4 weeks of treatment. […] The ulcer area was calculated by converting the number of pixels representing the ulcer to cm^2 using a calibrated square (35.48 mm×35.62 mm×6.52 mm) that was placed near the ulcer for reference. […]

[2] = trial patients; after ingestion of hydroxycarbamide vs after sodium nitrite application
Method: Plasma and whole blood nitrite and nitrate concentrations were collected at the following time points: pre-dose; immediately after application; 5, 10, 15, 20, 30, 45, 60, and 90 min post-dose; 2, 3, 6, 8, 12, 24, and 48 h post-dose; then weekly and at the end of the study. All processing was done at the bedside. Plasma and whole blood nitrite and nitrate were measured with a gas-phase chemiluminescence nitric oxide analyzer, as previously reported (Gladwin et al., Proc Natl Acad Sci USA.; 97: 11482-11487, 2000).
Therefore, we did a subsequent pharmacokinetic analysis was carried out with respect to the time and dose of hydroxycarbamide intake instead of nitrite cream administration, using a population approach. A two-compartment model was fitted with first-order absorption and elimination to whole blood nitrite concentrations using first-order conditional estimation method by Phoenix NLME 1.2 (Certara USA Inc., St Louis, Mo., USA), and an exponential model was used to describe the inter-individual variability and a mixed-ratio model to describe the intra-individual variability (FIG. 7C).

[3] = system: sickle cell disease leg ulcers; conditions: published randomised trials; RGD peptide topical, arginine butyrate intravenous; cited from earlier work

Molecule | Association with ulcer healing [1] | Whole blood nitrite concentrations [2] | Wound closure [3]
NC(=O)NO [hydroxycarbamide] | not associated with ulcer healing | increased | –
Arg-Gly-Asp (RGD) peptide | – | – | statistically significant increases in wound closure
arginine butyrate | – | – | statistically significant increases in wound closure
